“Also recorded” adds a separate entry of the source.
Key:
[1] = in vivo; cited from earlier work
[2] = system: adult and elderly subjects with insomnia disorder; assay: Phase 3 double-blind placebo-controlled polysomnography study, Example A (NCT03545191), 25 mg and 50 mg; type: in vivo, human; conditions: for IDSIQ sleepiness domain score: month 1 and month 3
Protocol: (§1) Daridorexant entered two phase 3 multi-center, double-blind, randomized, placebo-controlled, parallel-group, polysomnography study to assess the efficacy and safety of ACT-541468 in adult and elderly subjects with insomnia disorder. (NCT03545191, EudraCT Number: 2017-004642-20 testing strengths of 25 mg and 50 mg; and NCT03575104, EudraCT Number: 2017-004643-20 testing strengths of 10 mg and 25 mg). To assess daytime functioning, said phase 3 studies investigate as a secondary endpoint the IDSIQ sleepiness domain score, using as a dedicated patient reported outcome (PRO) instrument the Insomnia Daytime Symptoms and Impacts Questionnaire (IDSIQ) (S. Hudgens et al., The Patient—Patient-Centered Outcomes Research (2021) 14:249-268). The instrument is based on the Daytime Insomnia Symptom Scale (DISS) (Buysse et al., Sleep Medicine 8 (2007) 198-208; Buysse et al., SLEEP 29(9) (2006) 1155-1173) and designed to characterize and compare daytime symptoms in insomnia. The IDSIQ is structured in three domains (alertness/cognition; (negative) mood; tiredness/sleepiness) and contains overall 14 items, each based on an 11-point numeric rating scale. For each domain score the total rating score of all associated items is considered.
Example A): Multi-Center, Double-Blind, Randomized, Placebo-Controlled, Parallelgroup, Polysomnography Study to Assess the Efficacy and Safety of ACT-541468 in Adult and Elderly Subjects with Insomnia Disorder
The study comprises the following 3 phases: the screening phase, the treatment phase, and the safety follow-up phase. The screening phase starts with the signature of the informed consent form at Visit 1 and ends at Randomization (Visit 4), provided the subject fulfills all the eligibility criteria. It includes the Screening period and the Run-in period. The screening phase lasts […]. The Screening period starts with Visit 1 and ends at Visit 2. During the Screening period, the investigator verifies eligibility criteria and eligible subjects perform a one-night polysomnography (PSG) assessment. The Screening period lasts 7 to 18 days to allow time to perform all required procedures at Visit 1, the PSG assessment and collect the minimum number of eDiary entries (i.e., 7 days) between Visit 1 and Visit 2. The Run-in period starts with Visit 2 and ends at Randomization (i.e., Visit 4). At Visit 2 eligible subjects are allocated a single-blinded placebo treatment that is taken daily. During the Run-in period subjects come to the site for Visit 3, which consists of 2 PSG nights and is performed when the subject has completed the eDiary for at least 7 days and eligibility is confirmed. The Run-in period lasts 13 to 24 days, to allow collection of the minimum number of eDiary entries (i.e., 7 days), perform 2 PSG nights at Visit 3, and receive the eligibility confirmation from the PSG central reader. The double-blind (DB) treatment phase lasts 3 months. It starts at Randomization (Visit 4). DB study treatment is taken daily. A safety telephone call is performed at Visit 5 to collect information about adverse events (AEs) and concomitant medications. Sleep parameters of each subject are objectively assessed with 2 consecutive PSG nights at Visit 6 and Visit 8. A safety visit without PSG night is performed at Visit 7. An eDiary is completed every day during the treatment phase. End-of-Double-Blind-Treatment (EODBT) is reached in the second morning of Visit 8. The safety follow-up phase starts after EODBT. It consists of a single-blind placebo run-out period of 7 days and a safety follow-up period. The Run-out period starts in the evening of Visit 9. Visit 9 consists of one PSG night on single-blind placebo treatment. Visit 9 is followed by 6 days at home with single-blind placebo treatment. The eDiary is completed every day during the Run-out period. The end of the Run-out period (End-of-Treatment [EOT]) is reached after all visit assessments have been performed at Visit 10. […]

rat = conditions: cited from earlier work
[3] = system: adult and elderly subjects with insomnia disorder; assay: Phase 3 double-blind placebo-controlled polysomnography study, Example B (NCT03575104), 10 mg and 25 mg; type: in vivo, human
Protocol: as §1
Example B): Multi-Center, Double-Blind, Randomized, Placebo-Controlled, Parallelgroup, Polysomnography Study to Assess the Efficacy and Safety of ACT-541468 in Adult and Elderly Subjects with Insomnia Disorder
The study (NCT03575104) is conducted in analogy to the study of Example A), using daridorexant strengths of 10 mg and 25 mg.

[4] = system: subjects with insomnia disorder; conditions: cited from earlier work; for visual analog scales (VASs) on morning sleepiness, daytime alertness, and daytime ability to function: compared with placebo at week 2, higher doses, not sustained at week 4
[5] = system: animal model of agitation; conditions: in vivo; cited from earlier work
[6] = 25 mg and 50 mg once daily in the evening, Month 1 and Month 3, vs placebo
[7] = both doses (25 mg, 50 mg), all timepoints, vs placebo
[8] = 10 mg, month 1 and month 3, vs placebo
[9] = 25 mg, month 1 and month 3, vs placebo

## Cc1ccc(-n2nccn2)c(C(=O)N2CCN(c3nc4cc(Cl)ccc4o3)CC[C@H]2C)c1 [suvorexant]
[1]
  halflife (t½): 12 h

## COc1ccc(-n2nccn2)c(C(=O)N2CCC[C@@]2(C)c2nc3c(C)c(Cl)ccc3[nH]2)c1 [daridorexant, [(S)-2-(5-Chloro-4-methyl-1H-benzoimidazol-2-yl)-2-methyl-pyrrolidin-1-yl]-(5-methoxy-2-[1,2,3]triazol-2-yl-phenyl)-methanone]
[2]; [6]
  change from baseline in LPS (latency to persistent sleep, sleep onset): significant reductions
  change from baseline in WASO (wake time after sleep onset, sleep maintenance): significant reductions
  change from baseline in subjective total sleep time (sTST): increased the subjective total sleep time (sTST) significantly
[2]; 25 mg and 50 mg vs placebo
  incidence of somnolence: low (lower with daridorexant 50 mg versus placebo) and not dose dependent
[2]; 25 mg, vs placebo
  IDSIQ sleepiness domain score: numerical trend; also recorded: numerical improvement
[2]; 50 mg dose group compared to placebo
  falls: Fewer falls
[2]; 50 mg, vs placebo
  IDSIQ sleepiness domain score: significantly improved
[2]; 3 months of treatment
  daytime functioning over time: gradual improvement
  improvements in sleep (WASO, LPS, sTST) over time: maintained over 3 months; also recorded: maintained over three months
[2]; adult and elderly patients
  tolerability / safety profile: well tolerated
[2]; [7]
  IDSIQ alert/cognition domain score: decreased; also recorded: improved
  IDSIQ mood domain score: decreased; also recorded: improved
  IDSIQ total score: decreased; also recorded: improved
[2]; both treatment doses vs placebo
  rate of adverse events: comparable between placebo and daridorexant
[2]; every morning
  next-morning sleepiness effect assessed by visual analog scale (VAS): no next-morning sleepiness effect
[2]; in vivo
  most frequent treatment-emergent adverse events (TEAEs): nasophyringitis and headache
  suicide, suicidal ideation, or self-injury: no suicide, suicidal ideation, or self-injury
[2]; placebo group compared to daridorexant treatment groups
  number of serious adverse events: higher in the placebo group
[2]; upon discontinuation
  rebound insomnia or withdrawal symptoms upon discontinuation: no rebound insomnia, or withdrawal symptoms
rat
  crossing of the blood-brain barrier: cross the blood-brain barrier
  sleep promotion (effects on active wake, home cage activity, NREM sleep, REM sleep): promote sleep
[3]; [8]
  WASO: not
  sTST: not
[3]; 25 mg, both time points
  IDSIQ sleepiness domain: numerical trend
[3]; 25 mg, month 1 and month 3
  LPS after log-transformation: significantly reduced; also recorded: significant after log-transformation
[3]; [9]
  WASO: significantly decreased
  sTST: increased
[3]; 25 mg, vs placebo, without log-transformation
  decrease in LPS: did not reach statistical significance
[4]; any dose vs placebo
  morning sleepiness (sleepiness the following day): no difference
[4]
  visual analog scales (VASs) on morning sleepiness, daytime alertness, and daytime ability to function: nonsignificant increases
[4]; phase 2, subjects with insomnia disorder
  wake time after sleep onset: dose-dependent reduction
[4]; up to and including the highest dose (50 mg)
  next-morning residual drug effects: absence of such effects
[5]
  activity in animal model of agitation: active

## Cc1ccc(-c2nc3ccc(C)cn3c2CC(=O)N(C)C)cc1 [zolpidem, reference compound]
[4]
  visual analog scales (VASs) on morning sleepiness, daytime alertness, and daytime ability to function: pattern was also true

Reference: patent US20230134935A1, “MEDICAL USE OF DARIDOREXANT” (Idorsia Pharmaceuticals Ltd, priority 2020, published 2023)
